Data as given in patent publication EP4678638A1, “NEW E3 UBIQUITIN LIGASE LIGAND, PROTEIN DEGRADATION AGENT AND USE THEREOF” (priority 2023, dated 2024).

What was measured:
[1] = system: SW620; assay: CCK-8 proliferation, SW620; assay type: cell-based; details: Homo sapiens, SW-620; CCK-8; 96 hours; read-out: Inhibitory activity (IC50) on tumor cell proliferation, SW620
Procedure, shortened: (§1)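 Cells seeded, then after 24 h treated with 10 concentrations (top 10 µM, 5-fold serial dilution) for a line-specific time at 37°C, 5% CO2. Viability read by CCK-8; IC50 fitted from growth-inhibition curves.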

[2] = system: TMD8; assay: CCK-8 proliferation, TMD8; assay type: cell-based; details: Homo sapiens, TMD8; CCK-8; 72 hours; read-out: Inhibitory activity (IC50) on tumor cell proliferation, TMD8
Description: (§2) The tumor cells used herein were cultured in a cell culture medium listed in table A1 at 37°C in an incubator with 5% CO2. Prior to experimentation, all cell lines used were correctly identified by STR profiling, and tested negative for mycoplasma contamination using a mycoplasma detection kit through routine screenings. Table A1. Tumor cells and cell culture medium used in the present disclosure
(§3) IC50 values of the compounds of the present disclosure (including the compounds in Table 1, and compounds of examples) were measured using the Meilun Cell Counting Kit-8 kit from Dalian Meilun Biotech Co., Ltd. Assay details are as follows: tumor cells were seeded in a 96-well plate at a density listed in Table A2. After 24h, 100 µL of the inoculated cells were treated with 0.5µL of the compounds of the present disclosure (including the compounds in Tables 1 and 2, and compounds of examples) at 10 different successively decreasing concentrations (starting at the highest concentration of 10µM; 5-fold serial dilutions). After the cells were treated with the compounds of the present disclosure for a period of time, the cell viability detection reagent was added to the culture medium for cell viability assessment according to the instructions provided with the CCK-8 kit. […] The growth inhibition of the compounds of the present disclosure on cells was plotted by Prism Graphpad software, and the IC50 values of the compounds of the present disclosure were calculated therefrom. […] Seeding protocol and treatment time for tumor cells

[3] = system: THP-1; assay: CCK-8 proliferation, THP-1; assay type: cell-based; details: Homo sapiens, 72 hours, read-out: Inhibitory activity (IC50) on tumor cell proliferation, THP-1
Description: as §2, §3

[4] = system: CCRF-CEM; assay: CCK-8 proliferation, CCRF-CEM; assay type: cell-based, Human; details: Homo sapiens, CCRF-CEM; CCK-8; 96 hours; read-out: Inhibitory activity (IC50) on tumor cell proliferation, CCRF-CEM
Procedure, shortened: as §1

[5] = system: Jurkat; assay: CCK-8 proliferation, Jurkat; assay type: cell-based, Human; details: Homo sapiens, Jurkat; CCK-8; 96 hours; read-out: Inhibitory activity (IC50) on tumor cell proliferation, Jurkat
Procedure, shortened: as §1

[6] = system: LNcap; assay: CCK-8 proliferation, LNcap; assay type: cell-based; details: Homo sapiens, LNCaP; CCK-8; 96 hours; read-out: Inhibitory activity (IC50) on tumor cell proliferation, Lncap
Description: as §2, §3

[7] = system: LS174T; assay: CCK-8 proliferation, LS174T; assay type: cell-based; details: Homo sapiens, read-out: Inhibitory activity (IC50) on tumor cell proliferation, LS174T
Description: IC50 values of the compounds of the present disclosure (including the compounds in Table 1, and compounds of examples) were measured using the Meilun Cell Counting Kit-8 kit from Dalian Meilun Biotech Co., Ltd. Assay details are as follows: tumor cells were seeded in a 96-well plate at a density listed in Table A2. After 24h, 100 µL of the inoculated cells were treated with 0.5µL of the compounds of the present disclosure (including the compounds in Tables 1 and 2, and compounds of examples) at 10 different successively decreasing concentrations (starting at the highest concentration of 10µM; 5-fold serial dilutions). After the cells were treated with the compounds of the present disclosure for a period of time, the cell viability detection reagent was added to the culture medium for cell viability assessment according to the instructions provided with the CCK-8 kit. […] The growth inhibition of the compounds of the present disclosure on cells was plotted by Prism Graphpad software, and the IC50 values of the compounds of the present disclosure were calculated therefrom. [drawing 1519] Table A2. Seeding protocol and treatment time for tumor cells

[8] = system: H1975; assay: CCK-8 proliferation, NCI-H1975 (H1975); assay type: cell-based, Human; details: Homo sapiens, NCI-H1975; CCK-8; 96 hours; read-out: Inhibitory activity (IC50) on tumor cell proliferation, H1975
Procedure, shortened: as §1

[9] = system: MM.1R; assay: CCK-8 proliferation, MM.1R; assay type: cell-based; details: CCK-8, 72 hours, read-out: Inhibitory activity (IC50) on tumor cell proliferation, MM.1R
Description: as §2, §3

[10] = system: SR; assay: CCK-8 proliferation, SR; assay type: cell-based, Human; details: Homo sapiens, SR; CCK-8; 72 hours; read-out: Inhibitory activity (IC50) on tumor cell proliferation, SR
Procedure, shortened: as §1

[11] = system: CAL-62; assay: CCK-8 proliferation, CAL-62; assay type: cell-based; details: Homo sapiens, 72 hours, read-out: Inhibitory activity (IC50) on tumor cell proliferation, CAL-62
Description: as §2, §3

[12] = molecular target: T1, FAK (Homo sapiens, UniProt Q05397); assay: Western blot degradation of FAK; assay type: cell-based; details: Table D7
T1 construct: evaluate the effects of the compounds of the present disclosure on the expression of target proteins in cells; endogenous in cells
Procedure, shortened: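 Quantification by ImageJ densitometry of Western blot bands: DC50 is the fitted concentration halving band intensity relative to DMSO. Percent remaining uses internal-control normalization, and degradation rate is its complement.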

[13] = system: MV-4-11; assay: CCK-8 proliferation, MV-4-11; assay type: cell-based, Human; details: Homo sapiens, MV4-11; CCK-8; 72 or 96 hours; read-out: Inhibitory activity (IC50) on tumor cell proliferation, MV-4-11
Procedure, shortened: as §1

[14] = system: BXPC-3; assay: CCK-8 proliferation, BXPC-3; assay type: cell-based; details: Homo sapiens, 96 hours, read-out: Inhibitory activity (IC50) on tumor cell proliferation, BXPC-3
Description: as §2, §3

[15] = molecular target: T2, human Cereblon WT GST-tagged protein (Homo sapiens, UniProt Q96SW2); assay: CRBN binding, HTRF (CEREBLON BINDING kit); details: Table II-2, CRBN binding screening, HTRF; for inhibition at 0.5 µM: read-out: Inhibition rate (%) at 0.5µM; for inhibition at 2 µM: read-out: Inhibition rate (%) at 2 µM
T2 construct: purchased CISBIO 64BDCRBNPEH
Procedure, shortened: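 After 3 h at room temperature, emission at 665 and 620 nm was measured in a homogeneous time-resolved fluorescence format. Compounds competed with a Thalidomide-Re probe for GST-tagged wild-type human CRBN, which was labelled with a Eu anti-GST antibody.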

T2 sequence (Q96SW2 whole entry): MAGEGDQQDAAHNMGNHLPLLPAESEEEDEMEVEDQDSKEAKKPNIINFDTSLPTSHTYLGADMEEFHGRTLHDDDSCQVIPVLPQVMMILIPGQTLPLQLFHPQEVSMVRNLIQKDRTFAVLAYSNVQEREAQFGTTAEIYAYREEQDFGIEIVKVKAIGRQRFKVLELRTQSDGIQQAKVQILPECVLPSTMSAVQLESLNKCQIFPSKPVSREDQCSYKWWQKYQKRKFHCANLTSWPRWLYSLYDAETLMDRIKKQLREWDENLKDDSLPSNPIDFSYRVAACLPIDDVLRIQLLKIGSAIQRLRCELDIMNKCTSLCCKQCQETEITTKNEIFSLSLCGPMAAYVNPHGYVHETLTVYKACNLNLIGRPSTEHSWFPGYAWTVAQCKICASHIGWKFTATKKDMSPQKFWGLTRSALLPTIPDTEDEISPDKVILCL
T1 sequence (Q05397 whole entry, species assumed): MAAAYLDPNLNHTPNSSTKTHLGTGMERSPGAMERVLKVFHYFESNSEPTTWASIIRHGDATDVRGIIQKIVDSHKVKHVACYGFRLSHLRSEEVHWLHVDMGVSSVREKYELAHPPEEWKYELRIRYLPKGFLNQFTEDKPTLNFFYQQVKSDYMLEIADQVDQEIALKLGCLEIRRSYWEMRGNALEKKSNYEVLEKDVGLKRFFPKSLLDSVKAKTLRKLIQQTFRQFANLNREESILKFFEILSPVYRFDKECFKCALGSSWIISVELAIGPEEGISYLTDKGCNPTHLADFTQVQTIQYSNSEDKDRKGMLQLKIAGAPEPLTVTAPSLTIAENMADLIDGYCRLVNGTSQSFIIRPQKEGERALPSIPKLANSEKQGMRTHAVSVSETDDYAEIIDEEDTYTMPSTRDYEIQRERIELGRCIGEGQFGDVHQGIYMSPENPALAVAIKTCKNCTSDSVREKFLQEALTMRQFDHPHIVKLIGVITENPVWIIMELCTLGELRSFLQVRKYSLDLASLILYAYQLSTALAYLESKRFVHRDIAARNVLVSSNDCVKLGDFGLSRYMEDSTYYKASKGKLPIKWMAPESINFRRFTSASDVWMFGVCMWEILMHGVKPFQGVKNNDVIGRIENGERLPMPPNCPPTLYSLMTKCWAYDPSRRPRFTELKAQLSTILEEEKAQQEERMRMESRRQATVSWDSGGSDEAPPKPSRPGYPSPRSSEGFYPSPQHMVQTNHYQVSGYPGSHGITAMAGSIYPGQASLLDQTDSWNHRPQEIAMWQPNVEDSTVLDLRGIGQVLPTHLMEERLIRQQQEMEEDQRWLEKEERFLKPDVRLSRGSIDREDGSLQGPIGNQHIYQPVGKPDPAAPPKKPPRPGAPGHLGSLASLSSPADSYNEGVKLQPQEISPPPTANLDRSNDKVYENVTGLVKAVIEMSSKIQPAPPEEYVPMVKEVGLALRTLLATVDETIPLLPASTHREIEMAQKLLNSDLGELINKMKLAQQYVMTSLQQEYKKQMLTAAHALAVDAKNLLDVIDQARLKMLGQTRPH

SMILES | IC50 [1] [nM] | IC50 [2] [nM] | IC50 [3] [nM] | IC50 [4] [nM] | IC50 [5] [nM] | IC50 [6] [nM] | IC50 [7] [nM] | IC50 [8] [nM] | IC50 [9] [nM] | IC50 [10] [nM] | IC50 [11] [nM] | Degradation of substrate protein FAK (substrate protein remaining %) [12] | IC50 [13] [nM] | IC50 [14] [nM] | inhibition at 0.5 µM [15] [%] | inhibition at 2 µM [15] [%]
CC1(C)CCC(c2ccc(Cl)cc2)=C(CN2CCN(c3ccc(C(=O)NS(=O)(=O)c4ccc(N[C@H](CCN5CCOCC5)CSc5ccccc5)c(S(=O)(=O)C(F)(F)F)c4)cc3)CC2)C1 [ABT-263, Navitoclax, reference compound] | 500 to 1000 | 1000 to 5000 | 100 to 500 | 100 to 500 | 100 to 500 | 1000 to 5000 | 500 to 1000 |  |  |  |  |  |  |  |  | 
CNC(=O)c1ccccc1Nc1cc(Nc2ccc(N3CCC(N4CCN(Cc5ccc(C6CCC(=O)NC6=O)c(F)c5)CC4)CC3)cc2OC)ncc1C(F)(F)F (stereo not drawn) [GT-03600, 2-((2-((4-(4-(4-(4-(2,6-dioxopiperidin-3-yl)-3-fluorobenzyl)piperazin-1-yl)piperidin-1-yl)-2-methoxyphenyl)amino)-5-(trifluoromethyl)pyridin-4-yl)amino)-N-methylbenzamide] | 50 to 100 |  |  | 500 to 1000 |  |  |  | 500 to 1000 | 500 to 1000 | 50 to 100 | 100 to 500 | A (A is defined as 0% ≤ substrate protein remaining % ≤ 80%) |  |  |  | 
CNC(=O)c1ccccc1Nc1cc(Nc2ccc(N3CCOCC3)cc2OC)ncc1C(F)(F)F [PND-1186, reference compound] |  |  |  | 1000 to 5000 | 1000 to 5000 |  |  |  | 500 to 1000 |  | 1000 to 5000 |  | 100 to 500 |  |  | 
CNC(=O)c1ccccc1Nc1cc(Nc2ccc(N3CCC(N(C)Cc4ccc(C5CCC(=O)NC5=O)c(F)c4)CC3)cc2OC)ncc1C(F)(F)F (stereo not drawn) [GT-03734, 2-((2-((4-(4-((4-(2,6-dioxopiperidin-3-yl)-3-fluorobenzyl)(methyl)amino)piperidin-1-yl)-2-methoxyphenyl)amino)-5-(trifluoromethyl)pyridin-4-yl)amino)-N-methylbenzamide] | 100 to 500 |  |  | 100 to 500 |  |  |  | 100 to 500 |  | 50 to 100 | 50 to 100 | A (A is defined as 0% ≤ substrate protein remaining % ≤ 80%) | 100 to 500 |  |  | 
Cc1ccc(-c2c(C)noc2C)cc1N(CC1CCN(Cc2cccc(NC3CCC(=O)NC3=O)c2)CC1)c1ccc(C2(C#N)CC2)cc1 (stereo not drawn) [GT-04841, 1-(4-((5-(3,5-dimethylisoxazol-4-yl)-2-methylphenyl)((1-(3-((2,6-dioxopiperidin-3-yl)amino)benzyl)piperidin-4-yl)methyl)amino)phenyl)cyclopropane-1-carbonitrile] |  |  | 500 to 1000 |  |  |  |  |  |  |  |  |  |  | 100 to 500 |  | 
CC1(C)CCC(c2ccc(Cl)cc2)=C(CN2CCN(c3ccc(C(=O)NS(=O)(=O)c4ccc(N[C@H](CCN5CCN(Cc6cccc(N7CCC(=O)NC7=O)c6)CC5)CSc5ccccc5)c(S(=O)(=O)C(F)(F)F)c4)cc3)CC2)C1 [GT-04278, (R)-4-(4-((4'-chloro-4,4-dimethyl-3,4,5,6-tetrahydro-[1,1'-biphenyl]-2-yl)methyl)piperazin-1-yl)-N-((4-((4-(4-(3-(2,4-dioxotetrahydropyrimidin-1(2H)-yl)benzyl)piperazin-1-yl)-1-(phenylthio)butan-2-yl)amino)-3-((trifluoromethyl)sulfonyl)phenyl)sulfonyl)benzamide] | 100 to 500 | 10 to 50 | 10 to 50 | 1 to 10 | 10 to 50 | 100 to 500 | 500 to 1000 |  |  |  |  |  |  |  |  | 
CNC(=O)c1ccccc1Nc1cc(Nc2ccc(N3CCC(N(C)Cc4ccc(C5CCC(=O)NC5=O)cc4)CC3)cc2OC)ncc1C(F)(F)F (stereo not drawn) [GT-03733, 2-((2-((4-(4-((4-(2,6-dioxopiperidin-3-yl)benzyl)(methyl)amino)piperidin-1-yl)-2-methoxyphenyl)amino)-5-(trifluoromethyl)pyridin-4-yl)amino)-N-methylbenzamide] | 100 to 500 |  |  | 100 to 500 |  |  |  | 100 to 500 | 500 to 1000 | 50 to 100 | 50 to 100 | A (A is defined as 0% ≤ substrate protein remaining % ≤ 80%) | 100 to 500 |  | 30 to 40 | 40 to 53
CNC(=O)c1ccccc1Nc1cc(Nc2cc(C)c(N3CCC(N(C)Cc4ccc(C5CCC(=O)NC5=O)cc4)CC3)cc2OC(C)C)ncc1C(F)(F)F (stereo not drawn) [GT-04094, 2-((2-((4-(4-((4-(2,6-dioxopiperidin-3-yl)benzyl)(methyl)amino)piperidin-1-yl)-2-isopropoxy-5-methylphenyl)amino)-5-(trifluoromethyl)pyridin-4-yl)amino)-N-methylbenzamide] | 100 to 500 |  |  | 500 to 1000 |  |  |  |  |  |  | 500 to 1000 | A (A is defined as 0% ≤ substrate protein remaining % ≤ 80%) |  |  | 10 to 20 | 53 to 60
CNC(=O)c1ccc(Nc2ncc(C(F)(F)F)c(NCc3nccnc3N(C)S(C)(=O)=O)n2)cc1 [Defactinib, reference compound] | 1000 to 5000 |  |  | 1000 to 5000 | 1000 to 5000 |  |  | 1000 to 5000 | 1000 to 5000 | 500 to 1000 | 5000 to 10000 |  | 50 to 100 |  |  | 
CC1(C)CCC(c2ccc(Cl)cc2)=C(CN2CCN(c3ccc(C(=O)NS(=O)(=O)c4ccc(N[C@H](CCN5CCN(Cc6cccc(NC7CCC(=O)NC7=O)c6)CC5)CSc5ccccc5)c(S(=O)(=O)C(F)(F)F)c4)cc3)CC2)C1 (stereo partly drawn) [GT-04279, 4-(4-((4'-chloro-4,4-dimethyl-3,4,5,6-tetrahydro-[1,1'-biphenyl]-2-yl)methyl)piperazin-1-yl)-N-((4-(((2R)-4-(4-(3-((2,6-dioxopiperidin-3-yl)amino)benzyl)piperazin-1-yl)-1-(phenylthio)butan-2-yl)amino)-3-((trifluoromethyl)sulfonyl)phenyl)sulfonyl)benzamide] | 50 to 100 | 10 to 50 | 10 to 50 | 1 to 10 | 10 to 50 | 50 to 100 | 100 to 500 |  |  |  |  |  |  |  |  | 
